Reference: patent US7683061B2, “Triazine dimers for the treatment of autoimmune diseases” (ProMetic BioSciences Inc., priority 2003, dated 2010)

Tests used:
[1] = test system: TNFα-induced apoptosis, WEHI-13VAR cells; assay: TNFα induced apoptosis in WEHI-13VAR cells (MTT); format: cell-based, murine; conditions: Mus musculus
Method: Effect of compounds on TNFα-induced apoptosis was measured by a standard biological assay using WEHI-13VAR cells. These cells undergo apoptosis when they are incubated in the presence of TNFα and actinomycin D. 2×10^4 WEHI-13VAR cells were incubated in RPMI supplemented with 1% sodium pyruvate and 10% FBS, overnight at 37° C. for cell adherence. The cells were then cultured in the presence of 1 μg/mL of actinomycin D (to inhibit protein synthesis) and 0.04 nM TNFα with or without compounds at 37° C. After 16-24 h, 50 μL of a solution of 2 mg/mL of MTT was added to each well and the plate was then incubated for 4 h at 37° C. Only viable cells metabolize MTT to form formazan salt, which is detectable by the measurement of absorbance at 570 nm. After the incubation, the plate was inverted to remove medium and dead cells. 150 μL DMSO was added to each well to stop the reaction and solubilize the formazan salt. Optical density was read on a EL 800, universal Microplate reader (Bio-Tek). A decrease in the optical density is direct evidence of cell apoptosis induced by TNFα. Compounds were also compared to the activity of an anti-TNFα neutralizing antibody.

[2] = target: T1, TNFα / p55 TNFα receptor (CD120a) (Homo sapiens, UniProt P01375); assay: Binding ELISA: sTNF-R1 binding to plastic coated TNF-α
T1 sequence (P01375 77-233 limits assumed): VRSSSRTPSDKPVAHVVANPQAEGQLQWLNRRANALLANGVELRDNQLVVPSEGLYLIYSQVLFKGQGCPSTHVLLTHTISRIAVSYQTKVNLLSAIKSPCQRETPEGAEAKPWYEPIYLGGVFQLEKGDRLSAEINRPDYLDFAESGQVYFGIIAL
Method: (§1) Compounds were tested for their ability to bind to TNFα or inhibit the interaction of TNFα with its respective receptors; p55 and p75 TNFα receptor. Three binding ELISA assays were undertaken as described by Mancini et al. Biochemical Pharmacology 58, 851-859 (1999). TNFα or receptor (1 μg/mL) was coated on a 96-well plate Maxisorp, overnight at 4° C. After incubation, unbound TNFα or p55 TNFα receptor or p75 TNFα receptor was removed and the plate washed three times with PBS. The plate was then incubated with 100 μL/well of a 2% BSA solution for 1 h at 37° C. to block non specific protein binding. After incubation, the plate was washed three times with PBS. Biotinylated recombinant human TNFα p55 or p75 receptor or biotinylated recombinant human TNFα was added to the wells in the presence or absence of compounds. The plate was incubated for 1 h at 37° C. After incubation, the plate was washed three times with PBS to remove unbound labeled p55 or p75 receptor or recombinant human TNFα. 100 μL of avidin-HRP (diluted 1/2000 in PBS-0.1% BSA) was added to each well and incubated 1 h at 37° C. Bound p55 or p75 receptor or recombinant human TNFα was detected by the addition of 200 μL of 3,3′,5,5′-tetramethylbenzidine (TMB) per well for 15 min. The plate was then read at 655 nm on a EL 800 universal Microplate reader (Bio-Tek, Mississauga, Canada). Data was analyzed in Microsoft Excel and recorded as the percentage of inhibition of p55 or p75 binding to TNFα or TNFα binding to RI (p55) or RII (p75).

[3] = target: T1, TNFα / p55 TNFα receptor (CD120a); assay: Binding ELISA: TNF-α binding to plastic coated TNF-R1; conditions: for inhibition at 100 µM: 10^−4 M; for inhibition at 10 µM: 10^−5 M
Method: as §1

[4] = test system: TNFα production, J774A-1 cells; assay: LPS-induced TNFα production in J774A-1 cells (ELISA); format: cell-based; conditions: Mus musculus, J774.A1, 24 h, read-out: IC50 (μM), inhibition of TNFα released by LPS induction
Method: Effect of compounds on TNFα production was measured by ELISA using J774-1 cells stimulated by LPS. J774-1 cells were cultured in the presence or absence of LPS and compound. Cells were cultured at 37° C. for 24 h and thereafter the supernatants were collected for the determination of the concentration of TNFα by ELISA as recommended by the manufacturer (BD Biosciences). Data was analyzed in Microsoft Excel and the concentration of compound which inhibits 50% of TNFα production (IC50) was calculated using Prism software.

[5] = test system: NZBxNZW mice; assay: SLE-glomerulonephritis in NZBxNZW mice; format: in vivo
From the text: New Zealand mice of the F1 hybrid cross NZBxNZW develop most of the autoimmune abnormalities seen in human SLE and die from SLE-like immune complex (IC)-mediated glomerulonephritis. The mice develop high titers of anti-DNA (double-strand and single-strand) and nuclear extract (NE) antibodies, as well as SLE-related clinical manifestations including leukopenia, thrombocytopenia, proteinuria and glomerulonephritis. These mice develop anti-DNA antibodies after the age of 3 months, with a peak of anti-DNA antibody response occurring at 7 months. Subsequently, the serum concentration of anti-DNA antibodies declines, presumably as a consequence of progressive uremia. The first serological manifestations of the disease occurs at about 150 days (5 months). Their survival is evaluated at approximately 250 days.
FIG. 2 illustrates the effect of compound 1 on the mortality of the NZBxNZW mice. Intravenous administration of compound or vehicle was undertaken once a week from week 18 to week 37. Treatment ceased for 11 weeks and was restarted at week 48 for the control and compound 1 groups. […] It also delays the appearance of symptoms and mortality up to week 45. FIG. 3 illustrates the proteinuria at week 48 to 51.

[6] = test system: MRL/lpr mice; assay: SLE-like syndrome in MRL/lpr mice; format: in vivo; conditions: control group 10%
From the text: FIG. 5 is an example of the effect of compounds on survival of MRL/lpr mice. These mice also spontaneously develop SLE-like syndrome. MRL/lpr have a homozygous fas mutation, which accelerates autoimmunity. […] Furthermore, compounds 1 and 20 increase the survival (40%) compared to the control group (10%).

[7] = test system: mice, oxazolone-induced DTH; assay: Oxazolone-induced delayed-type hypersensitivity (DTH); format: in vivo; conditions: for inflammation as seen by ear thickness: administered orally at day 0, 1 and 2, FIG. 8
Method: Compounds were tested for their ability to treat oxazolone-induced delayed-type hypersensitivity (DTH) in mice. On day 0, mice were sensitized with 100 μL of oxazolone in 5% acetone. On day 0, 1 and 2, mice were treated by intravenous or oral administrations of the vehicle (control) or methotrexate (MTX, positive control/IV) or hydrocortisone (positive control/PO) or the compound at 50 mg/kg to 300 mg/kg of body weight. Mice were challenged with an application of 50 μL of oxazolone on the surface of the right ear (first challenge, day 3; second challenge, day 10). Ear thickness was measured on day 4 to day 7, and on day 11 to 14. Redness and crust formation was also observed. Mice were sacrificed on day 14. TDTH (CD4) cells play an important role in regulating the intensity of the DTH response. Compounds may exert an inhibitory influence on the DTH response through its inhibition of T-cell activation and DNA, RNA and or protein synthesis.

[8] = weekly intravenous, week 48 to week 52

SMILES | inhibition at 10 µM ([1]; 1 × 10^−5M) [%] | inhibition at 20 µM ([1]; 2 × 10^−5M) [%] | inhibition at 40 µM ([1]; 4 × 10^−5M) [%] | inhibition at 5 µM ([1]; 5 × 10^−6M) [%] | inhibition at 100 µM ([2]; 10^−4 M) [%] | inhibition at 10 µM ([2]; 10^−5 M) [%] | inhibition at 100 µM [3] [%] | inhibition at 10 µM [3] [%] | IC50 [4] [µM] | delay of appearance of symptoms and mortality ([5]; intravenous once a week from week 18 to week 37) [week] | mortality of NZBxNZW mice ([5]; intravenous once a week from week 18 to week 37, at week 37) | extended survival ([5]; second SLE study, 65 weeks for control) | proteinuria: amount of protein greater than 5 g/liter ([5]; week 48 to 51, after 11 weeks without treatment) | protein concentration (5 g/liter) in urine compared to the vehicle [5, 8] | trace amount of protein in urine (improvement in kidney filtration) [5, 8] | survival of MRL/lpr mice [6] [%] | inflammation as seen by ear thickness [7] | potency compared to methotrexate ([7]; FIGS. 6 and 7)
Oc1ccc(CCNc2nc(NCCNc3nc(NCCc4ccc(O)cc4)nc(Nc4ccccc4)n3)nc(Nc3ccccc3)n2)cc1 [Compound 1] | 36.8 | 17.7 | -3.8 | 14.3 | 2.7 | 0 | 46 | 28.9 | 9.2 | ≤ 45 | reduces the mortality | up to 89 weeks | greater than the control | decrease | increase | 40 | significant reduction of the inflammation | –
Nc1ccc(CCNc2nc(Nc3ccc(CCNc4nc(NCCO)nc(Nc5cccc(N)c5)n4)cc3)nc(Nc3cccc(N)c3)n2)cc1 [Compound 19a] | – | – | – | – | – | – | 13.3 | -4 | 20.7 | – | – | – | – | – | – | – | significant reduction of the inflammation | equipotent to methotrexate
